# Measurements as given in ChEMBL document CHEMBL4813973, “Discovery of novel N-benzylbenzamide derivatives as tubulin polymerization inhibitors with potent antitumor activities” (Eur J Med Chem, 2021).
# Activity calls are given as the source filed them. The calls are words filed in the database; no cut-off is given here.
# Experiments:
# [1] = test system: A-431; experiment: Induction of apoptosis in human A-431 cells assessed as nuclear fragmentation at 7.5 to 30 nM incubated for 48 hrs by Hoechst33342 staining based fluorescent microscopy; assay type: functional, cell-based; conditions: dose 7.5-30 nM
# [2] = Induction of mitochondria membrane potential loss in human A-431 cells assessed as red fluorescence intensity at 7.5 nM incubated 48 hrs by JC-1 probe based flow cytometry analysis (reference value: 93.83%); assay type: functional
# [3] = test system: A-431; experiment: Induction of apoptosis in human A-431 cells assessed as activation of p53 at 7.5 to 30 nM by western blot analysis; assay type: functional, cell-based; conditions: dose 7.5-30 nM
# [4] = Induction of mitochondria membrane potential loss in human A-431 cells assessed as green fluorescence intensity at 15 nM incubated 48 hrs by JC-1 probe based flow cytometry analysis (reference value: 5.98%); assay type: functional
# [5] = test system: HCT-8; experiment: Antiproliferative activity against human HCT-8 cells assessed as reduction in cell viability incubated for 72 hrs by MTT assay; assay type: functional, cell-based; conditions: Homo sapiens, HCT-8, 72 h; read-out: IC50
# [6] = test system: MDA-MB-231; experiment: Antiproliferative activity against human MDA-MB-231 cells assessed as reduction in cell viability incubated for 72 hrs by MTT assay; assay type: functional, cell-based; conditions: MDA-MB-231, 72 h
# [7] = test system: H22; experiment: Antiproliferative activity against mouse H22 cells assessed as reduction in cell viability incubated for 72 hrs by MTT assay; assay type: functional, cell-based; conditions: H22, 72 h
# [8] = test system: Bel-7402; experiment: Antiproliferative activity against ADR-resistant human Bel-7402 cells assessed as reduction in cell viability incubated for 72 hrs by MTT assay; assay type: functional, cell-based; conditions: Homo sapiens, Bel-7402, 72 h; read-out: IC50
# [9] = Resistant index, ratio of IC50 for ADR-resistant human Bel-7402 cells to IC50 for human Bel-7402 cells; assay type: functional
# [10] = Resistant index, ratio of IC50 for taxol-resistant human HCT-8 cells to IC50 for human HCT-8 cells; assay type: functional
# [11] = test system: K562/VCR; experiment: Antiproliferative activity against VCR resistant human K562/VCR cells assessed as reduction in cell viability incubated for 72 hrs by MTT assay; assay type: functional, cell-based; conditions: Homo sapiens, K562/VCR, 72 h; read-out: IC50
# [12] = Aqueous solubility of the compound in phosphate buffer at pH 7.4 by HPLC-UV analysis; assay type: physicochemical
# [13] = Aqueous solubility of the compound in aqueous HCl at pH 2 by HPLC-UV analysis; assay type: physicochemical
# [14] = Inhibition of pig brain tubulin polymerisation incubated for 30 mins and measured every 2 mins for 60 mins by spectrophotometric method; assay type: tissue-based, Sus scrofa
# [15] = species on record: Sus scrofa; experiment: Inhibition of [3H]colchicine binding to biotinylated pig brain tubulin at 1 uM incubated for 2 hrs in presence of GTP by competitive scintillation proximity assay; assay type: tissue-based
# [16] = species on record: Sus scrofa; experiment: Inhibition of [3H]colchicine binding to biotinylated pig brain tubulin at 5 uM incubated for 2 hrs in presence of GTP by competitive scintillation proximity assay; assay type: tissue-based
# [17] = test system: A-431; experiment: Anti-microtubule activity in human A-431 cells assessed as cell membrane rounding at 7.5 to 30 nM incubated for 24 hrs by DAPI staining based confocal microscopic analysis; assay type: functional; conditions: dose 7.5-30 nM
# [18] = test system: A-431; experiment: Induction of cell cycle arrest in human A-431 cells assessed as accumulation at G2 phase at 7.5 nM after 48 hrs by propidium iodide staining based flow cytometry (reference value: 7.27%); assay type: functional
# [19] = test system: A-431; experiment: Induction of cell cycle arrest in human A-431 cells assessed as accumulation at G1 phase at 15 nM after 48 hrs by propidium iodide staining based flow cytometry (reference value: 41.16%); assay type: functional
# [20] = test system: A-431; experiment: Induction of cell cycle arrest in human A-431 cells assessed as accumulation at G2 phase at 15 nM after 48 hrs by propidium iodide staining based flow cytometry (reference value: 7.27%); assay type: functional
# [21] = test system: A-431; experiment: Induction of cell cycle arrest in human A-431 cells assessed as accumulation at G1 phase at 30 nM after 48 hrs by propidium iodide staining based flow cytometry (reference value: 41.16%); assay type: functional
# [22] = test system: A-431; experiment: Induction of cell cycle arrest in human A-431 cells assessed as accumulation at G2 phase at 30 nM after 48 hrs by propidium iodide staining based flow cytometry (reference value: 7.27%); assay type: functional
# [23] = test system: A-431; experiment: Cell cycle arrest in human A-431 cells assessed as downregulation of CyclinB1 expression by Western blot analysis; assay type: functional, cell-based; conditions: dose 7.5-30 nM
# [24] = test system: A-431; experiment: Cell cycle arrest in human A-431 cells assessed as downregulation of p-histone H3 expression by Western blot analysis; assay type: functional, cell-based; conditions: dose 7.5-30 nM
# [25] = test system: A-431; experiment: Induction of apoptosis in human A-431 cells assessed as early apoptotic cells at 7.5 nM after 48 hrs by Annexin-V-APC/PI-staining based flow cytometric analysis (reference value: 0.82%); assay type: functional
# [26] = test system: A-431; experiment: Induction of apoptosis in human A-431 cells assessed as late apoptotic cells at 7.5 nM after 48 hrs by Annexin-V-APC/PI-staining based flow cytometric analysis (reference value: 2.02%); assay type: functional
# [27] = test system: A-431; experiment: Induction of apoptosis in human A-431 cells assessed as activation of caspase 3 by western blot analysis; assay type: functional, cell-based; conditions: dose 7.5-30 nM
# [28] = test system: A-431; experiment: Induction of apoptosis in human A-431 cells assessed as activation of caspase 9 at 7.5 to 30 nM by western blot analysis; assay type: functional, cell-based; conditions: dose 7.5-30 nM
# [29] = Metabolic stability in rat plasma assessed as parent compound remaining at 100 nM measured after 60 mins by HPLC analysis; assay type: ADME, cell-free; conditions: 1 h, 0.1 µM
# [30] = Metabolic stability in rat plasma assessed as parent compound remaining at 100 nM measured after 3 hrs by HPLC analysis; assay type: ADME, cell-free; conditions: read-out: Stabilty
# [31] = Toxicity in ICR mouse xenografted with […] cells assessed as effect on body weight at 20 mg/kg/day, iv for 21 days; assay type: organism-based; conditions: in vivo, 504 h, time 21 day
# [32] = test system: HUVEC; experiment: Antivascular activity in HUVEC assessed as inhibition of capillary like tube formation at 30 nM incubated for 6 hrs by matrigel based inverted fluorescence microscopic analysis; assay type: functional, cell-based; conditions: Homo sapiens
# [33] = test system: H22; experiment: Antivascular activity against […] xenografted in ICR mouse assessed as reduction in tumor microvessel density at 20 mg/kg/day, iv administered for 21 days by immunohistochemical staining based analysis; assay type: functional, organism-based; conditions: time 21.0 day
# [34] = test system: A-431; experiment: Induction of ROS generation in human A-431 cells at 30 nM incubated for 48 hrs by DCFH-DA dye based fluorescence microscopy (reference value: 6.17%); assay type: functional
# [35] = Induction of mitochondria membrane potential loss in human A-431 cells assessed as green fluorescence intensity at 7.5 nM incubated 48 hrs by JC-1 probe based flow cytometry analysis (reference value: 5.98%); assay type: functional
# [36] = test system: H22; experiment: Antitumor activity against […] xenografted in ICR mouse assessed as reduction in tumor growth at 20 mg/kg/day, iv for 21 days; assay type: functional, organism-based; conditions: time 21.0 day
# [37] = test system: HUVEC; experiment: Cytotoxicity against HUVEC incubated for 6 hrs by inverted microscopic analysis; assay type: cell-based; conditions: Homo sapiens
# [38] = test system: K562; experiment: cells; conditions: Homo sapiens, K562, 72 h
# Description: Antiproliferative activity against human K562 cells assessed as reduction in cell viability incubated for 72 hrs by MTT assay
# [39] = test system: A-431; experiment: Induction of ROS generation in human A-431 cells incubated for 48 hrs by DCFH-DA dye based flow cytometry; conditions: dose 7.5-30 nM
smiles,measurement,setting,value
COc1ccc(CNC(=O)c2cc(F)ccc2N2CCOCC2)cc1O,Activity,[1],Active
same,Activity,[2],73.18%
same,Activity,[3],Active
same,Activity,[4],45.4%
same,IC50,[5],20 nM
same,IC50,[6],27 nM
same,IC50,[7],24 nM
same,IC50,[8],104 nM
same,Ratio IC50,[9],3.9
same,Ratio IC50,[10],5.3
same,IC50,[11],205 nM
same,solubility,[12],76.6 µg/mL
same,solubility,[13],323 µg/mL
same,IC50,[14],3030 nM
same,inhibition,[15],56.9%
same,inhibition,[16],82.9%
same,Activity,[17],Active
same,Activity,[18],13.84%
same,Activity,[19],61.16%
same,Activity,[20],16.25%
same,Activity,[21],56.41%
same,Activity,[22],24.95%
same,Activity,[23],Dose-Dependent Effect
same,Activity,[24],Dose-Dependent Effect
same,Activity,[25],11.52%
same,Activity,[26],9.21%
same,Activity,[27],Dose-Dependent Effect
same,Activity,[28],Active
same,Stabilty,[29],Stable
same,"remaining at 3 h, 0.1 µM",[30],91.5%
same,Activity,[31],Non-Toxic
same,Activity,[32],Active
same,Activity,[33],Active
same,Activity,[34],21.99%
same,Activity,[35],26.73%
same,Activity,[36],Active
same,IC50,[37],120 nM
same,IC50,[38],19 nM
same,Activity,[39],Dose-Dependent Effect
